Laboratory results: US4698352A, “4-oxo-1,4-dihydronicotinic acid derivatives, salts thereof, and antibacterial agents containing the same” (Toyama Chemical Co., Ltd., priority 1982, dated 1987)
≈ marks a conversion by molar mass, not a printed value. Like-named read-outs stand apart in the source and are kept apart here.

What was measured:
Test in all cases: Antibacterial activity (MIC), agar dilution
Type in all cases: cell-based
[1] = system: St. aureus F-137*; conditions: Staphylococcus aureus, 20 h, St. aureus F-137, penicillinase-producing; 10^6 cells per ml; read-out: MIC
Excerpt: (§1) The amount of bacteria inoculated was 10^4 cells per plate (10^6 cells per ml).
(§2) * Penicillinase-producing bacteria

[2] = system: E. coli TK-3*; conditions: Escherichia coli, 20 h, E. coli TK-3, penicillinase-producing; 10^6 cells per ml; read-out: MIC
Excerpt: as §1, §2

[3] = system: Ps. aeruginosa GN3379*; conditions: Pseudomonas aeruginosa, 20 h; Ps. aeruginosa GN3379, penicillinase-producing; 10^6 cells per ml; read-out: MIC
Excerpt: as §1, §2

[4] = system: Kl. pneumoniae Y-4*; conditions: Klebsiella pneumoniae, 20 h, Kl. pneumoniae Y-4, penicillinase-producing; 10^6 cells per ml; read-out: MIC
Excerpt: as §1, §2

[5] = system: Pro. vulgaris GN76**; conditions: Proteus vulgaris, 20 h; Pro. vulgaris GN76, cephalospolinase-producing; 10^6 cells per ml; read-out: MIC
Excerpt: as §1
(§3) ** Cephalospolinase-producing bacteria

[6] = system: E. coli GN5482**; conditions: Escherichia coli, 20 h; E. coli GN5482, cephalospolinase-producing; 10^6 cells per ml; read-out: MIC
Excerpt: as §1, §3

[7] = system: Ps. aeruginosa GN918**; conditions: Pseudomonas aeruginosa, Ps. aeruginosa GN918, cephalospolinase-producing, 10^6 cells per ml
Excerpt: as §1, §3

[8] = system: Pro. mirabilis T-111; conditions: Proteus mirabilis, 37° C.
Excerpt: as §1

[9] = system: Kl. pneumoniae Y-50; conditions: Klebsiella pneumoniae, Y50, 20 h, 10^6 cells per ml, 37° C., read-out: MIC
Excerpt: as §1

[10] = system: Ps. aeruginosa IFO3445; conditions: Pseudomonas aeruginosa
Excerpt: as §1

[11] = system: Ent. cloacae IID977; conditions: Enterobacter cloacae, IID977, 20 h, Ent. cloacae IID977; 10^6 cells per ml; 37° C., 20 hours; read-out: MIC
Excerpt: as §1

[12] = system: E. coli TK-111; conditions: Escherichia coli, TK111, 20 h, E. coli TK-111; 10^6 cells per ml; 37° C., 20 hours; read-out: MIC
Excerpt: as §1

[13] = system: St. aureus FDA209P; conditions: Staphylococcus aureus, FDA209P, 20 h, St. aureus FDA209P; 10^6 cells per ml; 37° C., 20 hours; read-out: MIC
Excerpt: as §1

[14] = system: Kl. pneumoniae Y-41; conditions: Klebsiella pneumoniae, Y41, 10^6 cells per ml, 37° C., 20 hours, read-out: MIC
Excerpt: as §1

[15] = system: Ps. aeruginosa S-68; conditions: Pseudomonas aeruginosa
Excerpt: as §1

[16] = system: Pro. vulgaris GN3027; conditions: Proteus vulgaris, GN3027, 20 h, Pro. vulgaris GN3027; 10^6 cells per ml; 37° C., 20 hours; read-out: MIC
Excerpt: as §1

[17] = system: E. coli NIHJ JC-2; conditions: Escherichia coli, NIHJJC2, 20 h, E. coli NIHJ JC-2; 10^6 cells per ml; 37° C., 20 hours; read-out: MIC
Excerpt: as §1

[18] = system: Aci. antitratus A-6; conditions: 20 h, Aci. antitratus A-6; 10^6 cells per ml; 37° C., 20 hours; read-out: MIC
Excerpt: as §1

[19] = system: Pro. morganii T-216; conditions: Morganella morganii, 37° C.
Excerpt: as §1

[20] = T111, 10^6 cells per ml, 20 hours, read-out: MIC
[21] = T216, 10^6 cells per ml, 20 hours, read-out: MIC
[22] = Ps. aeruginosa IFO3445, 10^6 cells per ml, 37° C., 20 hours, read-out: MIC
[23] = S68, Ps. aeruginosa S-68, 10^6 cells per ml, 37° C., 20 hours, read-out: MIC

`CC(=O)Oc1ccc(-n2cc(C(=O)O)c(=O)cc2-c2ccc(-c3cccs3)cc2)cc1` was tested, and the MIC [1] was ≤ 0.05 µg/mL, the MIC [2] was 0.39 µg/mL (≈ 0.904 µM) and the MIC [3] was 3.13 µg/mL (≈ 7.25 µM). For the same compound, the MIC [4] was 1.56 µg/mL (≈ 3.62 µM), the MIC [5] was 0.39 µg/mL (≈ 0.904 µM) and the MIC [6] was ≤ 0.05 µg/mL. The MIC ([7]; GN918, 20 h) was 1.56 µg/mL (≈ 3.62 µM), the MIC [8, 20] was 0.39 µg/mL (≈ 0.904 µM) and the MIC [9] was 0.39 µg/mL (≈ 0.904 µM). The MIC ([10]; IFO3445, 20 h) was 1.56 µg/mL (≈ 3.62 µM), the MIC [11] was 0.39 µg/mL (≈ 0.904 µM) and the MIC [12] was ≤ 0.05 µg/mL. For the same compound, the MIC [13] was ≤ 0.05 µg/mL, the MIC [14] was 0.78 µg/mL (≈ 1.81 µM) and the MIC ([15]; S68, 20 h) was 1.56 µg/mL (≈ 3.62 µM). For the same compound, the MIC [16] was ≤ 0.05 µg/mL, the MIC [17] was 0.2 µg/mL (≈ 0.464 µM) and the MIC [18] was ≤ 0.05 µg/mL. The MIC [19, 21] was 0.39 µg/mL (≈ 0.904 µM).
In the case of `CC(=O)Oc1ccc(-n2cc(C(=O)O)c(=O)cc2-c2ccc(N(C)C)cc2)c(C)c1`, the MIC [1] is reported as ≤ 0.05 µg/mL, the MIC [2] is reported as 0.39 µg/mL (≈ 0.96 µM) and the MIC [3] is reported as 6.25 µg/mL (≈ 15.4 µM). The MIC [4] was 1.56 µg/mL (≈ 3.84 µM), the MIC [5] was 0.39 µg/mL (≈ 0.96 µM) and the MIC [6] was ≤ 0.05 µg/mL. It also gave an MIC ([7]; GN918, 20 h) of 1.56 µg/mL (≈ 3.84 µM), an MIC [8, 20] of 0.78 µg/mL (≈ 1.92 µM) and an MIC [9] of 0.39 µg/mL (≈ 0.96 µM). The MIC [10, 22] was 6.25 µg/mL (≈ 15.4 µM), the MIC [11] was 0.78 µg/mL (≈ 1.92 µM) and the MIC [12] was ≤ 0.05 µg/mL. For the same compound, the MIC [13] was ≤ 0.05 µg/mL, the MIC [14] was 1.56 µg/mL (≈ 3.84 µM) and the MIC [15, 23] was 3.13 µg/mL (≈ 7.7 µM). The MIC [16] was 0.39 µg/mL (≈ 0.96 µM), the MIC [17] was 0.2 µg/mL (≈ 0.492 µM) and the MIC [18] was ≤ 0.05 µg/mL. It also gave an MIC ([19]; T216, 20 h, 10^6 cells per ml) of 1.56 µg/mL (≈ 3.84 µM).
For `O=C(O)c1cn(-c2ccc(O)cc2)c(-c2ccc(-c3ccc(Cl)s3)cc2)cc1=O`, the MIC [1] was ≤ 0.05 µg/mL, the MIC [2] was 0.78 µg/mL (≈ 1.84 µM) and the MIC [3] was 3.13 µg/mL (≈ 7.38 µM). The MIC [4] was 1.56 µg/mL (≈ 3.68 µM), the MIC [5] was 0.39 µg/mL (≈ 0.92 µM) and the MIC [6] was ≤ 0.05 µg/mL. The MIC ([7]; 20 h, read-out: MIC) was 0.78 µg/mL (≈ 1.84 µM), the MIC ([8]; T111, 20 h, 10^6 cells per ml) was 1.56 µg/mL (≈ 3.68 µM) and the MIC [9] was 0.39 µg/mL (≈ 0.92 µM). The MIC [10, 22] was 3.13 µg/mL (≈ 7.38 µM), the MIC [11] was 0.78 µg/mL (≈ 1.84 µM) and the MIC [12] was 0.1 µg/mL (≈ 0.236 µM). For the same compound, the MIC [13] was ≤ 0.05 µg/mL, the MIC [14] was 1.56 µg/mL (≈ 3.68 µM) and the MIC [15, 23] was 3.13 µg/mL (≈ 7.38 µM). For the same compound, the MIC [16] was ≤ 0.1 µg/mL, the MIC [17] was 0.2 µg/mL (≈ 0.472 µM) and the MIC [18] was 0.1 µg/mL (≈ 0.236 µM). For the same compound, the MIC [19, 21] was 0.78 µg/mL (≈ 1.84 µM).
In the case of `COc1ccc(-c2ccc(-c3cc(=O)c(C(=O)O)cn3-c3ccc(O)cc3)cc2)s1`, the MIC [1] is reported as ≤ 0.05 µg/mL, the MIC [2] is reported as 0.39 µg/mL (≈ 0.93 µM) and the MIC [3] is reported as 3.13 µg/mL (≈ 7.46 µM). The MIC [4] was 1.56 µg/mL (≈ 3.72 µM), the MIC [5] was 0.39 µg/mL (≈ 0.93 µM) and the MIC [6] was ≤ 0.05 µg/mL. It also gave an MIC ([7]; 20 h, read-out: MIC) of 0.78 µg/mL (≈ 1.86 µM), an MIC [8, 20] of 0.78 µg/mL (≈ 1.86 µM) and an MIC [9] of 0.78 µg/mL (≈ 1.86 µM). The MIC [10, 22] was 6.25 µg/mL (≈ 14.9 µM), the MIC [11] was 0.78 µg/mL (≈ 1.86 µM) and the MIC [12] was 0.1 µg/mL (≈ 0.238 µM). The MIC [13] was ≤ 0.05 µg/mL, the MIC [14] was 1.56 µg/mL (≈ 3.72 µM) and the MIC [15, 23] was 3.13 µg/mL (≈ 7.46 µM). It also gave an MIC [16] of 0.2 µg/mL (≈ 0.477 µM), an MIC [17] of 0.39 µg/mL (≈ 0.93 µM) and an MIC [18] of 0.1 µg/mL (≈ 0.238 µM). For the same compound, the MIC [19, 21] was 0.39 µg/mL (≈ 0.93 µM).
In the case of `Cc1ccc(-c2ccc(-c3cc(=O)c(C(=O)O)cn3-c3ccc(O)cc3)cc2)s1`, the MIC [1] is reported as ≤ 0.05 µg/mL, the MIC [2] is reported as 0.39 µg/mL (≈ 0.967 µM) and the MIC [3] is reported as 6.25 µg/mL (≈ 15.5 µM). For the same compound, the MIC [4] was 1.56 µg/mL (≈ 3.87 µM), the MIC [5] was 0.39 µg/mL (≈ 0.967 µM) and the MIC [6] was ≤ 0.05 µg/mL. It also gave an MIC ([7]; GN918, 20 h) of 1.56 µg/mL (≈ 3.87 µM), an MIC [8, 20] of 0.39 µg/mL (≈ 0.967 µM) and an MIC [9] of 0.78 µg/mL (≈ 1.93 µM). The MIC [10, 22] was 6.25 µg/mL (≈ 15.5 µM), the MIC [11] was 0.78 µg/mL (≈ 1.93 µM) and the MIC [12] was 0.1 µg/mL (≈ 0.248 µM). The MIC [13] was ≤ 0.05 µg/mL, the MIC [14] was 1.56 µg/mL (≈ 3.87 µM) and the MIC [15, 23] was 3.13 µg/mL (≈ 7.76 µM). The MIC [16] was 0.1 µg/mL (≈ 0.248 µM), the MIC [17] was 0.2 µg/mL (≈ 0.496 µM) and the MIC [18] was ≤ 0.05 µg/mL. It also gave an MIC [19, 21] of 0.78 µg/mL (≈ 1.93 µM).
In the case of `Cn1ccc2cc(-c3cc(=O)c(C(=O)O)cn3-c3ccc(O)cc3)ccc21`, the MIC [1] is reported as ≤ 0.05 µg/mL, the MIC [2] is reported as 0.39 µg/mL (≈ 1.08 µM) and the MIC [3] is reported as 3.13 µg/mL (≈ 8.69 µM). For the same compound, the MIC [4] was 0.78 µg/mL (≈ 2.16 µM), the MIC [5] was 0.39 µg/mL (≈ 1.08 µM) and the MIC [6] was ≤ 0.05 µg/mL. It also gave an MIC ([7]; 20 h, read-out: MIC) of 0.78 µg/mL (≈ 2.16 µM), an MIC [8, 20] of 0.78 µg/mL (≈ 2.16 µM) and an MIC [9] of 0.2 µg/mL (≈ 0.555 µM). For the same compound, the MIC [10, 22] was 3.13 µg/mL (≈ 8.69 µM), the MIC [11] was 0.39 µg/mL (≈ 1.08 µM) and the MIC [12] was ≤ 0.05 µg/mL. For the same compound, the MIC [13] was ≤ 0.05 µg/mL, the MIC [14] was 0.78 µg/mL (≈ 2.16 µM) and the MIC [15, 23] was 3.13 µg/mL (≈ 8.69 µM). The MIC [16] was 0.1 µg/mL (≈ 0.277 µM), the MIC [17] was 0.1 µg/mL (≈ 0.277 µM) and the MIC [18] was 0.1 µg/mL (≈ 0.277 µM). The MIC [19, 21] was 0.39 µg/mL (≈ 1.08 µM).
